Reference: patent US5514694A, “Peptidyl ketoamides” (Georgia Tech Research Corp, priority 1993, dated 1996)
Like-named read-outs stand apart in the source and are kept apart here.

Tests used:
Assay type in all cases: biochemical
cathepsin B = target: T1, cathepsin B (Homo sapiens, UniProt P07858); assay: Cathepsin B inhibition (KI); details: Table 1, Z-Leu--AA--CONHR; read-out: KI Cat B
T1 construct: purchased Sigma
Method: (§1) HEPES, heparin, and A23187 were obtained from Calbiochem. Suc-Leu-Tyr-AMC and chromogenic substrates were obtained from Sigma. Calpain I was purified from human erythrocytes according to the method of Kitahara (Kitahara et al., J. Biochem. 95, 1759-1766) omitting the Blue-Sepharose step. Calpain II from rabbit muscle and cathepsin B were purchased from Sigma. Papain was purchased from Calbiochem.
(§2) Peptide α-ketoamides were assayed as reversible enzyme inhibitors. Various concentrations of inhibitors in Me2 SO were added to the assay mixture which contained buffer and substrate. The reaction was started by the addition of the enzyme and the hydrolysis rates were followed spectrophotometrically or fluorimetrically.
(§3) Calpain I from human erythrocytes and calpain II from rabbit were assayed using Suc-Leu-Tyr-AMC Sasaki et al., J. Biol. Chem. 259, 12489-12494 (1984); incorporated herein by reference!, and the AMC (7-amino-4-methylcoumarin) release was followed fluorimetrically (excitation at 380 nm, and emmision at 460 nm). Calpains were assayed in 25 mM Tris pH=8.0, 10 mM CaC12. Fluorescence was followed using a Gilson FL-1A fluorometer or a Perkin-Elmer 203 Fluorescence spectrometer. Cathepsin B was assayed in 20 mM sodium acetate pH=5.2, 0.5 mM dithiothreitol using Bz-Phe-Val-Arg-p-nitroanilide as substrate. Alternately, cathepsin B was assayed with Z-Arg-Arg-AFC Barrett and Kirschke, Methods Enzymol. 80, 535-561 (1981); incorporated herein by reference!, and the AFC (7-amino-4-trifluoromethylcoumarin) release was followed fluorimetrically (excitation at 400 nm and emmision at 505 nm). Papain was assayed in 100 mM KPO4, 1 mM EDTA, 2.5 mM cysteine pH=6.0 using Bz-Arg-AMC or Bz-Arg-NA Kanaoka et al., Chem. Pharm. Bull. 25, 3126-3128 (1977); incorporated herein by reference! as a substrate. The AMC (7-amino-4-methylcoumarin) release was followed fluorimetrically (excitation at 380 nm, and emmision at 460 nm). Enzymatic hydrolysis rates were measured at various substrate and inhibitor concentrations, and KI values were determined by either Lineweaver-Burk plots or Dixon plots.
(§4) A 0.1M Hepes, 0.5M NaCl, pH 7.5 buffer was utilized for human leukocyte elastase (HLE), porcine pancreatic elastase (PPE), chymotrypsin and cathepsin G. A 0.1 Hepes, 0.01 M CaCl2, pH 7.5 buffer was utilized for trypsin, plasmin, and coagulation enzymes. A 50 mM Tris.HCl, 2 mM EDTA, 5 mM cysteine, pH 7.5 was used as a buffer for papain. A 88 mM KH2 PO4, 12 mM Na2 HPO4, 1.33 mM EDTA, 2.7 mM cysteine, pH 6.0 solution was used as a buffer for cathepsin B. A 20 mM Hepes, 10 mM CaCl2, 10 mM mercatoethanol, pH 7.2 buffer was utilized for calpain I and calpain II.

[1] = target: T2, Calpain I from human erythrocytes (Homo sapiens, UniProt P07384); assay: Calpain I inhibition, Suc-Leu-Tyr-AMC hydrolysis (KI); details: read-out: KI Cal I
T2 construct: Calpain I was purified from human erythrocytes; from tissue; host or cells: human erythrocytes
T2 sequence (P07384 1-714): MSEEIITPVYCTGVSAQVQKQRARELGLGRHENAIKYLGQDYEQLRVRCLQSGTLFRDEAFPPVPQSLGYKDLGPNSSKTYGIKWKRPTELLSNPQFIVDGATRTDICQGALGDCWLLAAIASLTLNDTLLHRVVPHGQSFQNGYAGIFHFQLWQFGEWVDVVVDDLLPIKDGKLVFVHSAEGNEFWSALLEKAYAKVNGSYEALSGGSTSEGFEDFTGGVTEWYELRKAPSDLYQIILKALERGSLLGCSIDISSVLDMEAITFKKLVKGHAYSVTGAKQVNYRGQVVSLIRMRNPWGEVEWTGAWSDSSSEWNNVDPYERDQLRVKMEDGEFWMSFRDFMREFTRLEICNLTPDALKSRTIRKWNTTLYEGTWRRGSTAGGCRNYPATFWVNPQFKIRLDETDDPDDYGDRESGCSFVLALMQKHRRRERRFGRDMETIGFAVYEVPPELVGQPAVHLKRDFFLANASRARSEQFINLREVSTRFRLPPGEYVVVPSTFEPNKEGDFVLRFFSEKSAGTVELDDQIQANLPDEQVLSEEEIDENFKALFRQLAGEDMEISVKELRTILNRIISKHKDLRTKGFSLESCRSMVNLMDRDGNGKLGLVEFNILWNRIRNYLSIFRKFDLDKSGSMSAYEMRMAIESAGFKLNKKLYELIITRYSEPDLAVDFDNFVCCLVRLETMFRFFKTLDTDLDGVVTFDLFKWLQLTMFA
T2 sequence (P04632 1-268 partner): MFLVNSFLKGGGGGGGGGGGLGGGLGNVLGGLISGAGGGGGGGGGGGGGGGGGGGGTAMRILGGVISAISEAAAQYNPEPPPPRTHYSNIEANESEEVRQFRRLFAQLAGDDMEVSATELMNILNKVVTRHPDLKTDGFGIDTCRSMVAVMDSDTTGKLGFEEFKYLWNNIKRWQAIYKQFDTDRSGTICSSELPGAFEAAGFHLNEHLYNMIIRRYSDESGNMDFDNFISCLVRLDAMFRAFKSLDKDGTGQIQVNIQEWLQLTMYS
Procedure, shortened: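 Human erythrocyte calpain I and rabbit calpain II were followed by fluorimetric AMC release from Suc-Leu-Tyr-AMC at pH 8.0 (25 mM Tris, 10 mM CaCl2). Cathepsin B was run at pH 5.2 with 0.5 mM DTT on a p-nitroanilide substrate, or with Z-Arg-Arg-AFC (ex 400/em 505 nm). Enzyme was added last, and KI was taken from Dixon or Lineweaver-Burk analysis.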

[2] = target: T3, human leukocyte elastase (HLE) (Homo sapiens, UniProt P08246); assay: HLE inhibition, MeO-Suc-Ala-Ala-Pro-Val-NA hydrolysis; details: for IC50: Table 4, Z-Leu--AA--CONH-R; for Ki: Table 4, in brackets under the IC50
T3 sequence (P08246 30-267): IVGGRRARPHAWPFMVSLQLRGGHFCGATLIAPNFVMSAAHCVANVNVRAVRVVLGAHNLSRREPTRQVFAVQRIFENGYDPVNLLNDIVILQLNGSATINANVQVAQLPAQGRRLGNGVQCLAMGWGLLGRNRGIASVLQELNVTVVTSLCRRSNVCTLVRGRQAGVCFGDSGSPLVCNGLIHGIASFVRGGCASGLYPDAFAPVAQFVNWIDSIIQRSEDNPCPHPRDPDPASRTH
Method: as §2, §4
(§5) HLE and PPE were assayed with MeO-Suc-Ala-Ala-Pro-Val-NA and Suc-Ala-Ala-Ala-NA, respectively Nakajima et al., J. Biol. Chem. 254, 4027-4032 (1979); incorporated herein by reference!. Human leukocyte cathepsin G and chymotrypsin Aα were assayed with Suc-Val-Pro-Phe-NA Tanaka et al., Biochemistry 24, 2040-2047 (1985); incorporated herein by reference!. The hydrolysis of peptide 4-nitroanilides was measured at 410 nm ε410 =8800 M^-1 cm^-1; Erlanger et al., Arch. Biochem. Biophys. 95, pp 271-278 (1961); incorporated herein by reference!. Trypsin, thrombin, human plasma kallikrein, porcine pancreatic kallikrein, human factor XIa, and human plasmin were assayed with Z-Arg-SBzl or Z-Gly-Arg-SBu-i McRae et al., Biochemistry 20, 7196-7206 (1981); incorporated herein by reference!. All peptide thioester hydrolysis rates were measured with assay mixtures containing 4,4'-dithiodipyridine ε324 =19800 M^-1 cm^-1; Grasetti & Murray, Arch. Biochem. Biophys. 119, 41-49 (1967); incorporated herein by reference!.

calpain II from rabbit = assay: Calpain II inhibition, Suc-Leu-Tyr-AMC hydrolysis (KI); details: Table 1, Z-Leu--AA--CONHR; read-out: KI Cal II
Method: as §1, §2, §3, §4

[3] = target: T4, Human leukocyte cathepsin G (Homo sapiens, UniProt P08311); assay: Cathepsin G inhibition, Suc-Val-Pro-Phe-NA hydrolysis; details: for IC50: Table 4, Z-Leu--AA--CONH-R; for Ki: Table 4, in brackets under the IC50, read-out: KI Cat G
T4 sequence (P08311 21-255): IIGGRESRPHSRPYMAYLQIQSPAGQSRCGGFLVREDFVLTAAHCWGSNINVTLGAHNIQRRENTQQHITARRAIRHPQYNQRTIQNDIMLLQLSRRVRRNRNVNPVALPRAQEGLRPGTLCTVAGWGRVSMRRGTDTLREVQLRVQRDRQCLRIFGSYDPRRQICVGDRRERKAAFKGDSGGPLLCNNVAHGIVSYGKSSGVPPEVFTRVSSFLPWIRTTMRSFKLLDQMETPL
Method: as §2, §4, §5

Compound	IC50 [2]	IC50 [3]	further results
CCC(NC(=O)C(CC(C)C)NC(=O)OCc1ccccc1)C(=O)C(=O)NCCCN1CCOCC1 (stereo not drawn) [Z-Leu-Abu-CONH-(CH2)3 -4-morpholinyl, Z-Leu-Abu-CONH--(CH2)3 -4-Morpholinyl]	> 217 µM		Ki (cathepsin B): 6.9 µM; Ki ([1]; Table 1, Z-Leu--AA--CONHR): 140 nM; Ki (calpain II from rabbit): 41 nM
CC[C@H](NC(=O)[C@H](CC(C)C)NC(=O)OCc1ccccc1)C(=O)C(=O)NCC(O)c1ccc(OCc2ccccc2)cc1 (stereo partly drawn) [Z-Leu-Abu-CONH--CH2 CH(OH)C6 H4 (4-OCH2 Ph)]		> 102 µM	Ki ([1]; Table 2, Z-Leu--AA--CONH--CH2 CH(OH)-R): 80 nM
CCCCCCCNC(=O)C(=O)C(CC)NC(=O)C(CC(C)C)NC(=O)OCc1ccccc1 (stereo not drawn) [Z-Leu-Abu-CONH-C7 H15]	52 µM	> 116 µM	
CCCCCCCCNC(=O)C(=O)C(CC)NC(=O)C(CC(C)C)NC(=O)OCc1ccccc1 (stereo not drawn) [Z-Leu-Abu-CONH-C8 H17]	45 µM	> 217 µM	
CCCCCCCCCNC(=O)C(=O)C(CC)NC(=O)C(CC(C)C)NC(=O)OCc1ccccc1 (stereo not drawn) [Z-Leu-Abu-CONH-C9 H19]	78 µM	150 µM	
CCC(NC(=O)C(CC(C)C)NC(=O)OCc1ccccc1)C(=O)C(=O)NCc1ccco1 (stereo not drawn) [Z-Leu-Abu-CONH-CH2 -2-furyl, Z-Leu-Abu-CONH--CH2 -2-Furyl]	38 µM		Ki (cathepsin B): 6 µM; Ki ([1]; Table 1, Z-Leu--AA--CONHR): 800 nM; Ki (calpain II from rabbit): 33 nM
CCC(NC(=O)C(CC(C)C)NC(=O)OCc1ccccc1)C(=O)C(N)=O (stereo not drawn) [Z-Leu-Abu-CONH-H]	> 120 µM	> 217 µM	
CCC(NC(=O)C(CC(C)C)NC(=O)OCc1ccccc1)C(=O)C(=O)NCC(C)C (stereo not drawn) [Z-Leu-Abu-CONH-i-Bu]	78 µM	134 µM	
CCCCNC(=O)C(=O)C(CC)NC(=O)C(CC(C)C)NC(=O)OCc1ccccc1 (stereo not drawn) [Z-Leu-Abu-CONH-n-Bu]	63 µM	148 µM	
CCCNC(=O)C(=O)C(CC)NC(=O)C(CC(C)C)NC(=O)OCc1ccccc1 (stereo not drawn) [Z-Leu-Abu-CONH-n-Pr]	> 120 µM	> 217 µM	
CC(C)CC(NC(=O)OCc1ccccc1)C(=O)NC(Cc1ccccc1)C(=O)C(=O)NCCc1ccccc1 (stereo not drawn) [Z-Leu-Phe-CONH-(CH2)2 Ph]	24 µM	112 µM	
CC(C)CC(NC(=O)OCc1ccccc1)C(=O)NC(Cc1ccccc1)C(=O)C(=O)NCC(O)c1ccc(OCc2ccccc2)cc1 (stereo not drawn) [Z-Leu-Phe-CONH--CH2 CH(OH)C6 H4 (4-OCH2 Ph)]	40 µM	58 µM	
CC(C)C[C@H](NC(=O)OCc1ccccc1)C(=O)N[C@@H](Cc1ccccc1)C(=O)C(=O)NCC(O)c1ccc(OCc2ccccc2)c(OCc2ccccc2)c1 (stereo partly drawn) [Z-Leu-Phe-CONH-C6 H3 (3,4-(OCH2 Ph)2), Z-Leu-Phe-CONH--CH2 CH(OH)C6 H3 (3,4-(OCH2 Ph)2)]	22 µM	66 µM	
CC(C)CC(NC(=O)OCc1ccccc1)C(=O)NC(Cc1ccccc1)C(=O)C(=O)NCc1ccccc1 (stereo not drawn) [Z-Leu-Phe-CONH-CH2 Ph]	40 µM	63 µM	
CCNC(=O)C(=O)[C@H](Cc1ccccc1)NC(=O)[C@H](CC(C)C)NC(=O)OCc1ccccc1 [Z-Leu-Phe-CONH-Et, Z-Leu-Phe-CO--NH-Et]	74 µM	91 µM	
CC(C)C[C@H](NC(=O)OCc1ccccc1)C(=O)N[C@@H](Cc1ccccc1)C(=O)C(N)=O [Z-Leu-Phe-CONH-H]	100 µM	80 µM	
CC(C)CNC(=O)C(=O)C(Cc1ccccc1)NC(=O)C(CC(C)C)NC(=O)OCc1ccccc1 (stereo not drawn) [Z-Leu-Phe-CONH-i-Bu]	20 µM	45 µM	Ki [2]: 10 µM; Ki [3]: 21 µM
CCCCNC(=O)C(=O)C(Cc1ccccc1)NC(=O)C(CC(C)C)NC(=O)OCc1ccccc1 (stereo not drawn) [Z-Leu-Phe-CONH-n-Bu]	16 µM	68 µM	Ki [2]: 11 µM; Ki [3]: 4.9 µM
CCCNC(=O)C(=O)C(Cc1ccccc1)NC(=O)C(CC(C)C)NC(=O)OCc1ccccc1 (stereo not drawn) [Z-Leu-Phe-CONH-n-Pr]	44 µM	65 µM	
CCC(C)NC(=O)C(=O)C(Cc1ccccc1)NC(=O)C(CC(C)C)NC(=O)OCc1ccccc1 (stereo not drawn) [Z-Leu-Phe-CONH-sec-Bu]	50 µM	128 µM	
Z-Leu-Phe-CONH--CH2 CH(OH)C6 H4 (4-OPh) [Z-Leu-Phe-CONH-CH2 CH(OH)-C6 H4 (4-OPh)]	32 µM	> 102 µM	
